Values quoted from earlier work as cited in patent publication US11085047B2, “Synthetic cannabinoid compounds for treatment of substance addiction and other disorders” (MyMD Pharmaceuticals (Florida), Inc., priority 2018, dated 2021).

Experiments:
[1] = several clinical studies
[2] = 2.5 to 5 mg; three patients

For CCCCCc1cc(O)c2c(c1)OC(C)(C)[C@@H]1CCC(C)=C[C@@H]21 [THC, tetrahydrocannabinol], the “mood in reactive depression” value [1] is listed as “improvement of mood”, the “effect on pruritus due to liver diseases” value [2] is listed as “effective” and the bronchoconstriction after inhalation (inhalation of THC) is listed as “Very few patients developed bronchoconstriction”. For the same compound, the anti-asthmatic effect (oral THC (15 mg), acute studies) was “approximately correspond to those obtained with therapeutic doses of common bronchodilator drugs”.
